Measured values from patent US7608688B2, “HIV-1 protein associated with broadly reactive neutralizing antibody response” (The Henry M. Jackson Foundation for the Advancement of …, priority 1998, dated 2009).
Values after ≈ are worked out from the molar mass of the structure shown. Like-named read-outs stand apart in the source and are kept apart here. Bridge positions count the residues as written; N and C are the ends. Peptide text beside a SMILES is read from it.

Assay: Solubility of V3 peptides
Type: physicochemical
Settings: for solubility: 10 percent DMSO in water, estimated by turbidity, read-out: solubility in 10 percent DMSO solution at pH=7.4
Protocol: To obtain cyclic peptides, solutions of the R2 and R2(313-4PM/HI, 325Q/D) V3 35-mers in dimethylsulfoxide (DMSO), 10 mg/ml, were diluted 1:10 in water at room temperature or 37° C. and the pH was adjusted to 8.5 with ammonium hydroxide. These solutions were aerated by bubbling air through the solutions for periods ≧1 hour. Following aeration, the pH was adjusted to 7.4 using hydrochloric acid. A portion of the R2 35-mer peptide precipitated during these procedures. To obtain an approximate quantitation of the amount of R2 V3 35-mer that remained in solution, the turbidity of the suspension was determined at 480 nm wavelength visible light using a spectrophotometer. The spectrophotometer was blanked with a solution of 10 percent DMSO in water, and a standard curve was produced using slurries of known amounts of the 35-mer peptide suspended in water. The amount of precipitate estimated by turbidity was subtracted from the amount of peptide added at the beginning of the preparation procedure to estimate the amount remaining in solution. […] Peptides were sterilized by passage through 0.22μ pore size filters prior to use.

Compound: CC[C@H](C)[C@@H]1NC(=O)[C@H](CC(=O)O)NC(=O)CNC(=O)[C@H]([C@@H](C)CC)NC(=O)[C@H]([C@@H](C)CC)NC(=O)[C@H](CCC(N)=O)NC(=O)CNC(=O)[C@H]([C@@H](C)O)NC(=O)[C@H]([C@@H](C)O)NC(=O)[C@H](Cc2ccc(O)cc2)NC(=O)[C@H](Cc2ccccc2)NC(=O)[C@H](C)NC(=O)[C@H](CCCNC(=N)N)NC(=O)CNC(=O)[C@@H]2CCCN2C(=O)CNC(=O)[C@H](CCSC)NC(=O)[C@@H]2CCCN2C(=O)[C@H]([C@@H](C)CC)NC(=O)[C@H](CO)NC(=O)[C@H](CCCCN)NC(=O)[C@H](CCCNC(=N)N)NC(=O)[C@H]([C@@H](C)O)NC(=O)[C@H](CC(N)=O)NC(=O)[C@H](CC(N)=O)NC(=O)[C@H](CC(N)=O)NC(=O)[C@@H]2CCCN2C(=O)[C@H](CCCNC(=N)N)NC(=O)[C@H](CO)NC(=O)[C@@H](N)CSSC[C@@H](C(=O)O)NC(=O)[C@H](Cc2c[nH]cn2)NC(=O)[C@H](C)NC(=O)[C@H](CCC(N)=O)NC(=O)[C@H](CCCNC(=N)N)NC1=O [cyclic 35-mer R2 V3 peptide] (H-CSRPNNNTRKSIPMGPGRAFYTTGQIIGDIRQAHC-OH; disulfide 1-35; N-terminus and C-terminus assumed)
- solubility (pH 7.4, processed at 37° C.): 0.85 to 0.9 mg/mL (≈ 220 to 233 µM)
- solubility (pH 7.4, processed at room temperature): 0.3 to 0.35 mg/mL (≈ 77.7 to 90.7 µM)

Compound: CSRPNNNTRKSIPMGPGRAFYTTGQIIGDIRQAHC (Human immunodeficiency virus type 1; R2 strain V3 domain) [R2 V3 35-mer]
- solubility in water (water): insoluble in water
